Laboratory results as given in patent US20140179664A1, “Heterocyclyl Pyrimidine Analogues As JAK Inhibitors” (Cellzome Limited, priority 2011, published 2014).

Experiments:
[1] = target: T1, JAK3 (Homo sapiens, UniProt P52333); assay: Kinobeads assay, JAK3; assay type: binding; conditions: mixed Molt4/Ramos lysate, read-out: Inhibition values (IC50) JAK3
T1 construct: endogenous in cells; host or cells: Molt4 (ATCC CRL-1582) and Ramos (ATCC CRL-1596), mixed lysate 1:2
T1 sequence (P52333 1-1124): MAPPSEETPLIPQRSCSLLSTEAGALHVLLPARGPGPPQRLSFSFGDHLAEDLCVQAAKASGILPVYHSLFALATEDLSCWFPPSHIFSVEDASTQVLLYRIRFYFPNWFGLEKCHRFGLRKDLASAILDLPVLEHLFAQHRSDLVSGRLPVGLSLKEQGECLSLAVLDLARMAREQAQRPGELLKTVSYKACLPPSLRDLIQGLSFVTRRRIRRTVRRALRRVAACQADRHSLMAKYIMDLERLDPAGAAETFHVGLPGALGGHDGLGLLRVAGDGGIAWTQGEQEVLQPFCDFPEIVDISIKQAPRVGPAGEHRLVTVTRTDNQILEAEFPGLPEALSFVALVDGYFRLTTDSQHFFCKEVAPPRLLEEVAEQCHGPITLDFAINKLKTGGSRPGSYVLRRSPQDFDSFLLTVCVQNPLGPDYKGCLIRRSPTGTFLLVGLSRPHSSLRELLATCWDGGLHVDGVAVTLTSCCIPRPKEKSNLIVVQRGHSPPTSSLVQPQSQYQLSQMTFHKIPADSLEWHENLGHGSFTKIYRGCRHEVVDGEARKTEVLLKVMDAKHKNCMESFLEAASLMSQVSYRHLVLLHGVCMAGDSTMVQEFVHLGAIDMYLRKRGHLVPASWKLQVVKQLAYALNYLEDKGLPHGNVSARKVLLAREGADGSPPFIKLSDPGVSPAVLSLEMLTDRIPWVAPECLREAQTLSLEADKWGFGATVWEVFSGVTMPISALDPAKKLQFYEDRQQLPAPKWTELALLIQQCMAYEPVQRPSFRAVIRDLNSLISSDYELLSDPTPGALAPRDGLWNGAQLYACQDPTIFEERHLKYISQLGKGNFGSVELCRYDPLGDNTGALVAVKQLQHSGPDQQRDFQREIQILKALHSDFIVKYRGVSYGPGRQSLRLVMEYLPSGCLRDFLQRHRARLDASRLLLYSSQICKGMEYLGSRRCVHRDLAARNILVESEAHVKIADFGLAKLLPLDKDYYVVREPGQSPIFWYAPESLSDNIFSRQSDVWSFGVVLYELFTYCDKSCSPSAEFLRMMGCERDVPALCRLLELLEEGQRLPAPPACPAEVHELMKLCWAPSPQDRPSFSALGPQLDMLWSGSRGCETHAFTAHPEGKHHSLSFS
Protocol: The compounds of the present invention as described in the previous examples were tested in a Kinobeads™ assay as described for ZAP-70 (WO-A 2007/137867). Briefly, test compounds (at various concentrations) and the affinity matrix with the immobilized aminopyrido-pyrimidine ligand 24 were added to cell lysate aliquots and allowed to bind to the proteins in the lysate sample. After the incubation time the beads with captured proteins were separated from the lysate. Bound proteins were then eluted and the presence of JAK1, JAK2, JAK3 and TYK2 was detected and quantified using specific antibodies in a dot blot procedure and the Odyssey infrared detection system. Dose response curves for individual kinases were generated and IC50 values calculated. Kinobeads™ assays for ZAP-70 (WO-A 2007/137867) and for kinase selectivity profiling (WO-A 2006/134056) have been previously described.
The affinity matrix was washed two times with 15 mL of lx DP buffer containing 0.2% NP40 (IGEPAL® CA-630, Sigma, #13021) and then resuspended in 1×DP buffer containing 0.2% NP40 (3% beads slurry).
5×DP buffer: 250 mM Tris-HCl pH 7.4, 25% Glycerol, 7.5 mM MgCl2, 750 mM NaCl, 5 mM Na3VO4; filter the 5×DP buffer through a 0.22 μm filter and store in aliquots at −80° C. The 5×DP buffer is diluted with H2O to 1×DP buffer containing 1 mM DTT and 25 mM NaF.
Stock solutions of test compounds were prepared in DMSO. In a 96 well plate […] solution of diluted test compounds at 5 mM in DMSO were prepared. Starting with this solution a 1:3 dilution series (9 steps) was prepared. For control experiments (no test compound) a buffer containing 2% DMSO was used.
Molt4 cells (ATCC catalogue number CRL-1582) and Ramos cells (ATCC catalogue number CRL-1596) were grown in 1 L Spinner flasks (Integra Biosciences, #182101) in suspension in RPMI 1640 medium (Invitrogen, #21875-034) supplemented with 10% Fetal Bovine Serum (Invitrogen) at a density between 0.15×10^6 and 1.2×10^6 cells/mL. Cells were harvested by centrifugation, washed once with 1×PBS buffer (Invitrogen, #14190-094) and cell pellets were frozen in liquid nitrogen and subsequently stored at −80° C. Cells were homogenized in a Potter S homogenizer in lysis buffer: 50 mM Tris-HCl, 0.8% NP40, 5% glycerol, 150 mM NaCl, 1.5 mM MgCl2, 25 mM NaF, 1 mM sodium vanadate, 1 mM DTT, pH 7.5. One complete EDTA-free tablet (protease inhibitor cocktail, Roche Diagnostics, 1873580) per 25 mL buffer was added. The material was dounced 10 times using a mechanized POTTER S, transferred to 50 mL falcon tubes, incubated for 30 minutes on ice and spun down for 10 minutes at 20,000 g at 4° C. (10,000 rpm in Sorvall SLA600, precooled). The supernatant was transferred to an ultracentrifuge (UZ)-polycarbonate tube (Beckmann, 355654) and spun for 1 hour at 100.000 g at 4° C. (33.500 rpm in Ti50.2, precooled). The supernatant was transferred again to a fresh 50 mL falcon tube, the protein concentration was determined by a Bradford assay (BioRad) and samples containing 50 mg of protein per aliquot were prepared. The samples were immediately used for experiments or frozen in liquid nitrogen and stored frozen at −80° C.
Cell lysate (approximately 50 mg protein per plate) was thawed in a water bath at room temperature and then stored on ice. To the thawed cell lysate 1×DP 0.8% NP40 buffer containing protease inhibitors (1 tablet for 25 mL buffer; EDTA-free protease inhibitor cocktail; Roche Diagnostics 1873580) was added in order to reach a final protein concentration of 10 mg/mL total protein. The diluted cell lysate was stored on ice. Mixed Molt4/Ramos lysate was prepared by combining one volume of Molt4 lysate and two volumes of Ramos lysate (ratio 1:2).
To a 96 well filter plate (Multiscreen HTS, BV Filter Plates, Millipore #MSBVN1250) were added per well: 100 μL affinity matrix (3% beads slurry), […], of compound solution, and 50 μL of diluted lysate. […]

[2] = target: T2, TYK2 (Homo sapiens, UniProt P29597); assay: Kinobeads assay, TYK2; assay type: binding; conditions: mixed Molt4/Ramos lysate, read-out: Inhibition values (IC50) TYK2
T2 construct: endogenous in cells; host or cells: Molt4 (ATCC CRL-1582) and Ramos (ATCC CRL-1596), mixed lysate 1:2
Summary of the method: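 IC50s come from capture competition: compound at various concentrations versus an immobilized aminopyrido-pyrimidine ligand for kinases in 1:2 Molt4/Ramos lysate (10 mg/mL), 3 h in a cold room. Captured JAK-family kinases were measured by specific-antibody dot blot with Odyssey infrared detection.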

T2 sequence (P29597 whole entry): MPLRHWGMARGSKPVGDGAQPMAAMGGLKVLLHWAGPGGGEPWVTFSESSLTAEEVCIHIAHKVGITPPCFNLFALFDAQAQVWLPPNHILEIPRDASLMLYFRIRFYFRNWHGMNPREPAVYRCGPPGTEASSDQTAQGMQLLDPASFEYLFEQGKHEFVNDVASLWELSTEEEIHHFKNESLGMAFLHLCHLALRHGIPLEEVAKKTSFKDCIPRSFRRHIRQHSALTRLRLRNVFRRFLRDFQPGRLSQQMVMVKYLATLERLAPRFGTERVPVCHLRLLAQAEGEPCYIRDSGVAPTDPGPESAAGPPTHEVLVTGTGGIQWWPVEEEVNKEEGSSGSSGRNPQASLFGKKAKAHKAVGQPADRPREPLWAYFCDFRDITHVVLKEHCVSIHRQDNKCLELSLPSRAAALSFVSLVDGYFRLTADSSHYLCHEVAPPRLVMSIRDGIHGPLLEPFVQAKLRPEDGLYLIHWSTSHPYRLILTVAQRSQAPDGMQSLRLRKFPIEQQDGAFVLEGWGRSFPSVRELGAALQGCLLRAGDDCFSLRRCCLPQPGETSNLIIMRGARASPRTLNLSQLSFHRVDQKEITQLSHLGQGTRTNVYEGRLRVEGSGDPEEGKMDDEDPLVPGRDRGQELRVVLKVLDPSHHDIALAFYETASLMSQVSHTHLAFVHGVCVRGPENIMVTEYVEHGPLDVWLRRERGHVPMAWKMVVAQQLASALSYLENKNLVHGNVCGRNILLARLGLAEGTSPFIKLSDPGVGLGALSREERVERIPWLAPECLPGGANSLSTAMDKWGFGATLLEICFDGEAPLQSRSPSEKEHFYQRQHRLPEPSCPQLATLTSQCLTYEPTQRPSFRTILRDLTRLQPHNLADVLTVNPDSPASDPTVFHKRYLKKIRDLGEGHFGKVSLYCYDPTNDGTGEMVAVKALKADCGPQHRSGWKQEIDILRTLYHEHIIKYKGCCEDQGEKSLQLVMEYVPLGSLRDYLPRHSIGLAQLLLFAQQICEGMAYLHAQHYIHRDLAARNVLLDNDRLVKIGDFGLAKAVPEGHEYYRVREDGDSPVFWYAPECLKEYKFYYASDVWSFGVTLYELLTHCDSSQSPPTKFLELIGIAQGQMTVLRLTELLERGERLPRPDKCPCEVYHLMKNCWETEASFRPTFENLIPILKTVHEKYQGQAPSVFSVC

IC50 [1] [nM]	IC50 [2] [nM]	Compound
< 100	100 to 1000	NC(=O)Cn1cc(Nc2ncc(Cl)c(N[C@H](CO)c3ccccc3)n2)cn1 [Compound 56]
< 100	100 to 1000	NC(=O)Cn1cc(Nc2ncc(Cl)c(N[C@H](CO)c3ccccc3F)n2)cn1 [Compound 78]
< 100	1000 to 10000	Cn1cc(Nc2ncc(Cl)c(NC(CO)c3c(F)cccc3F)n2)cn1 (centres unmarked) [Compound 44]
100 to 1000	1000 to 10000	COC(=O)C(Nc1nc(Nc2cnn(CCO)c2)ncc1Cl)c1ccccc1 (centres unmarked) [Compound 15]
100 to 1000	≥ 10000	OCCn1ccc(Nc2ncc(Cl)c(NC(CO)c3ccccc3F)n2)n1 (centres unmarked) [Compound 50]
< 100	1000 to 10000	O=C(O)Cn1cc(Nc2ncc(Cl)c(N[C@H](CO)c3ccccc3)n2)cn1 [Compound 24]
100 to 1000	1000 to 10000	Cc1cnc(Nc2cnn(CC(F)F)c2)nc1N[C@H](CO)c1cc(F)cc(F)c1 [Compound 167]
< 100	1000 to 10000	OCCn1cc(Nc2ncc(Cl)c(NC(CO)Cc3ccccc3)n2)cn1 (centres unmarked) [Compound 19]
< 100	100 to 1000	OCCn1cc(Nc2ncc(Cl)c(NC(CO)c3cccc(F)c3)n2)cn1 (centres unmarked) [Compound 39]
< 100	100 to 1000	NC(=O)Cn1cc(Nc2ncc(Cl)c(N[C@H](CO)c3ccccn3)n2)cn1 [Compound 81]
100 to 1000	1000 to 10000	Cn1cc(Nc2ncc(Cl)c(NC(CO)Cc3ccccc3)n2)cn1 (centres unmarked) [Compound 14]
< 100	100 to 1000	CN(C)C(=O)Cn1cc(Nc2ncc(Cl)c(N[C@H](CO)c3ccccc3)n2)cn1 [Compound 30]
100 to 1000	≥ 10000	Cn1cc(Nc2ncc(Cl)c(NC(CO)c3cccc(N4CC5(COC5)C4)c3)n2)cn1 (centres unmarked) [Compound 53]
100 to 1000	≥ 10000	Cn1cc(Nc2ncc(Cl)c(N[C@H](C(=O)N3CCCCC3)c3ccccc3)n2)cn1 [Compound 49]
< 100	1000 to 10000	CNC(=O)Cn1cc(Nc2ncc(Cl)c(NC(CO)c3cccc(F)c3)n2)cn1 (centres unmarked) [Compound 32]
< 100	1000 to 10000	Cn1cc(Nc2ncc(Cl)c(NC(CO)c3cccc(F)c3)n2)cn1 (centres unmarked) [Compound 40]
< 100	1000 to 10000	OC[C@@H](Nc1nc(Nc2cn[nH]c2)ncc1Cl)c1ccccc1 [Compound 75]
< 100	1000 to 10000	Cn1cc(Nc2ncc(Cl)c(NC(C(=O)O)c3ccccc3)n2)cn1 (centres unmarked) [Compound 18]
< 100	1000 to 10000	COc1ccccc1[C@@H](CO)Nc1nc(Nc2cnn(C)c2)ncc1Cl [Compound 74]

IC50 [1] [nM]	IC50 [2] [nM]	Compound
100 to 1000	≥ 10000	O=C([C@@H](Nc1nc(Nc2cnn(CCO)c2)ncc1Cl)c1ccccc1)N1CCCCC1 [Compound 51]
< 100	1000 to 10000	Cn1cc(Nc2ncc(Cl)c(N[C@H](C(=O)NCCO)c3ccccc3)n2)cn1 [Compound 46]
< 100	100 to 1000	O=C(c1cc(Nc2ncc(Cl)c(N[C@H](CO)c3ccccc3)n2)c[nH]1)N1CCOCC1 [Compound 13]
< 100	1000 to 10000	COCCNC(=O)[C@@H](Nc1nc(Nc2cnn(CCO)c2)ncc1Cl)c1ccccc1 [Compound 48]
< 100	100 to 1000	OCCn1cc(Nc2ncc(Cl)c(NC(CO)c3c(F)cccc3F)n2)cn1 (centres unmarked) [Compound 43]
< 100	100 to 1000	CN(CC#N)C(=O)Cn1cc(Nc2ncc(Cl)c(N[C@H](CO)c3ccccc3)n2)cn1 [Compound 70]
< 100	1000 to 10000	CCNC(=O)[C@@H](Nc1nc(Nc2cnn(CCO)c2)ncc1Cl)c1ccccc1 [Compound 27]
< 100	1000 to 10000	CNC(=O)Cn1cc(Nc2ncc(Cl)c(N[C@H](CO)c3cccnc3)n2)cn1 [Compound 170]
< 100	1000 to 10000	COc1cccc([C@@H](CO)Nc2nc(Nc3cnn(CCO)c3)ncc2Cl)c1 [Compound 83]
100 to 1000	1000 to 10000	OCC[C@@H](Nc1nc(Nc2cnn(CCO)c2)ncc1Cl)c1ccccc1 [Compound 65]
1000 to 10000	1000 to 10000	Cn1cc(Nc2ncc(Cl)c(N[C@@H](CO)c3ccccc3)n2)cn1 [Compound 54]
100 to 1000	1000 to 10000	O=C(NC1CCCC1)[C@@H](Nc1nc(Nc2cnn(CCO)c2)ncc1Cl)c1ccccc1 [Compound 60]
100 to 1000	≥ 10000	CN(C)C(=O)[C@@H](Nc1nc(Nc2cnn(C)c2)ncc1Cl)c1ccccc1 [Compound 25]
< 100	100 to 1000	OCCn1cc(Nc2ncc(Cl)c(NC(CO)c3ccccc3F)n2)cn1 (centres unmarked) [Compound 36]
< 100	1000 to 10000	CC(C)(O)Cn1cc(Nc2ncc(Cl)c(NC(CO)c3ccccc3F)n2)cn1 (centres unmarked) [Compound 57]
100 to 1000	1000 to 10000	CNC(=O)[C@@H](Nc1nc(Nc2cnn(C)c2)ncc1Cl)c1ccccc1 [Compound 20]
< 100	1000 to 10000	CC(O)Cn1cc(Nc2ncc(Cl)c(NC(CO)c3cccc(F)c3)n2)cn1 (centres unmarked) [Compound 38]
< 100	100 to 1000	COc1ccccc1[C@@H](CO)Nc1nc(Nc2cnn(CCO)c2)ncc1Cl [Compound 76]
